What is called pIC50 is the negative decadic logarithm of the IC50, by convention in mol/L. A low value points to a high IC50.

For the assay, the target named is T1, PI3K-Alpha kinase H1047R mutant (Homo sapiens, UniProt P42336, H1047R).
T1 construct: host or cells: MDA-MB-453
The experiment in a line: PI3K-Alpha Kinase (PIK3CA) Activity, H1047R Mutant In Vitro Cell Based Assay (MDA-MB-453 cells, AlphaLisa SureFire Ultra). To be noted: 0% FBS, 3 hours treatment, relative IC50. As for the experimental part:
PI3K-Alpha Kinase (PIK3CA) Activity, H1047R Mutant In Vitro Cell Based Assay and Determining IC50 Values for Inhibitors
The MDA-MB-453 (ATCC-HTB-131) cell line was obtained from the American Type Culture Collection (Manassas, VA). Cells were maintained in Dulbecco's Modified Eagle Media (DMEM, Gibco 11965-092) supplemented with 10% Fetal Bovine Serum, heat inactivated (FBS HI, Gibco 10082-147), 1× non-essential amino acids (NEAA, Gibco 11140-050), and 1 mM sodium pyruvate (Gibco 11360-070). Cultures were maintained in a humidified incubator at 37° C. under 5% CO2/95% air.
For compound testing in 0% FBS, MDA-MB-453 cells were seeded at a density of 1.5×10^4 cells per well in white 384-well plates in 20 μl of Minimum Essential Media (MEM) assay media with 1×NEAA, 1 mM sodium pyruvate, and 1 μg/mL human insulin (Sigma I9278). Compounds dissolved in 10 mM stock solutions in DMSO were serially diluted 1:3 in DMSO to generate a 10-point dilution series and plated using an acoustic liquid handler system (Echo 550 Series Liquid Handler, Labcyte). A 5× intermediate compound dilution plate in MEM with 1×NEAA and 1 mM sodium pyruvate (150 μM starting compound concentration in 1.5% DMSO) was then prepared. Five μl of the intermediate serially diluted compounds were added to the cell plate to final concentrations ranging from […] in 0.3% DMSO. 0.3% DMSO alone was used to establish the maximum (MAX) signal and GDC-0032 at a final concentration of 1 μM was used as a reference compound for the minimum (MIN) signal. After 3 hours treatment, the medium was removed, and the cells lysed in 10 μL of 1× SureFire Lysis buffer with shaking for 10 minutes at room temperature. The Acceptor Mix (Reaction Buffer 1+Reaction Buffer 2+Activation Buffer+SureFire Ultra Acceptor Beads) was prepared by diluting Activation buffer 25-fold in combined Reaction Buffer 1 and Reaction Buffer 2. The Acceptor beads were diluted 50-fold in the combined Reaction Buffers. Five μL of Acceptor Mix was added to each well, the plate was sealed and covered with foil and incubated for 1 hour at room temperature. The Donor Mix (dilution buffer+SureFire Ultra Donor Beads) was prepared by diluting Donor Beads 50-fold in dilution buffer. Five μL of the Donor Mix was added to each well and the plate sealed and covered with foil and incubated for 1 hour at room temperature in the dark. The plates were read on a Neo2 plate reader instrument from Biotek using standard AlphaLisa settings. Compounds were tested in duplicate and the average % inhibition at each compound concentration was used to generate a single dose response curve. The data were processed using the Genedata-Screener tool. Relative IC50 values were determined using luminescence units by calculating percent inhibition with respect to the in-plate “MIN” (GDC-0032 reference control) and “MAX” (DMSO) controls. The data was analyzed using a 4-parameter nonlinear logistic equation (four-parameter logistic concentration-response curve):
Y=bottom+[(top−bottom)/1+(X/IC50)slope]
where Y=% inhibition, X=concentration of inhibitor, bottom=minimum value of y attained by curve-fit, top=maximum value of y attained by curve-fit and slope=steepness of curve at the IC50.
% Inhibition=[(signal at X−median Min)/(median Max−median Min)]×100
IC50: concentration of compound that reduces a given response (ligand binding, enzyme response) by 50%. Relative IC50: concentration giving half the compound's maximum response.
For orientation: In Alpha technology, singlet oxygen from a donor bead excites a nearby acceptor bead.

pIC50: −log10 of the molar value. A value given as a limit tells only on which side of the number the result lay.

T1 sequence (P42336 whole entry H1047R): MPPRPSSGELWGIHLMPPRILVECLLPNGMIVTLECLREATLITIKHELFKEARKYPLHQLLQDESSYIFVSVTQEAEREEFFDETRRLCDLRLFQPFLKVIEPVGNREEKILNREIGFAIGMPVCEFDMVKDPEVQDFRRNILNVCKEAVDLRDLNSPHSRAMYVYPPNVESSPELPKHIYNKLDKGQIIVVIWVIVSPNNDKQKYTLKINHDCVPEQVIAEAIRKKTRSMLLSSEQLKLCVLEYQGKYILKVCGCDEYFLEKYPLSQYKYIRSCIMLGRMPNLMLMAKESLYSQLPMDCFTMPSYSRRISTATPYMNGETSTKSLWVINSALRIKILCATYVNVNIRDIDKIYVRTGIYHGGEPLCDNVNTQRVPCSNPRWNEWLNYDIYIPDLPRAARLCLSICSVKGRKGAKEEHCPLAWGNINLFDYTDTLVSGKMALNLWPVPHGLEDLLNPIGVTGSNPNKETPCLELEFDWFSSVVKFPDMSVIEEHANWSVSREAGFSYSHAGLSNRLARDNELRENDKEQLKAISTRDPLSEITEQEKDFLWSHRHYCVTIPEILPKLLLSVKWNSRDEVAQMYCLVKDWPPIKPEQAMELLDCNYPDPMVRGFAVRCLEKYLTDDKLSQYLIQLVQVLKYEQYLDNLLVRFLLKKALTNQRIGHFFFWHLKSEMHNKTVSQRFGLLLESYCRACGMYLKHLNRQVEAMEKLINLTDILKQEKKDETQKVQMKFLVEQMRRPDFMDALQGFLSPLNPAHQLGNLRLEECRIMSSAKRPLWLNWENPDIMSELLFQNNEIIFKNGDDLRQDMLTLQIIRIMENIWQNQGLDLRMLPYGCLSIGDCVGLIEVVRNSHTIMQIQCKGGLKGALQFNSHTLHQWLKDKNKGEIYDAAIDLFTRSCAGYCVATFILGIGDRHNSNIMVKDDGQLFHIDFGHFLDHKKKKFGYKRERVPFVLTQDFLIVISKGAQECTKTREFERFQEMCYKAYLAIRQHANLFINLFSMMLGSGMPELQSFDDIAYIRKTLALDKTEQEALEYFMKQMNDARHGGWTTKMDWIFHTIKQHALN
T1 sequence (P27986 whole entry partner): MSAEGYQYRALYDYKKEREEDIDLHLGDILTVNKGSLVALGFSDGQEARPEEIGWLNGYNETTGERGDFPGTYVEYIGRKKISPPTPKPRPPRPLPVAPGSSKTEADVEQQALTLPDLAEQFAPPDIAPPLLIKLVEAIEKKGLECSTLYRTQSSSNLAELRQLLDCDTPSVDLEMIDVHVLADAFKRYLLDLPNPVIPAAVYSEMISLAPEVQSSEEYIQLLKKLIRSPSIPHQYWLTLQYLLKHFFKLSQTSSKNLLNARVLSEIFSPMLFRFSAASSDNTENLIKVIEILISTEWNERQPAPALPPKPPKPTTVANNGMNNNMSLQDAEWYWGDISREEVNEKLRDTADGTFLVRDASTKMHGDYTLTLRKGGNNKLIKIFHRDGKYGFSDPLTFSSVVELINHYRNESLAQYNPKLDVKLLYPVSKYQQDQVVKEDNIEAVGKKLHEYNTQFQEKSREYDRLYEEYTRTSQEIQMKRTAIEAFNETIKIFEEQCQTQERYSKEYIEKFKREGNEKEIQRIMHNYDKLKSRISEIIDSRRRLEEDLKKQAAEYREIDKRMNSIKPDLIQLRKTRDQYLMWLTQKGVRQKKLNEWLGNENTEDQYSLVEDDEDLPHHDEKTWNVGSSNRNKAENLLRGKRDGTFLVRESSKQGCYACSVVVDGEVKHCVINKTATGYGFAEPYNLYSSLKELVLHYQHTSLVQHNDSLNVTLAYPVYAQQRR

Compound `Cc1cc(C(C)Nc2ccccc2-n2cnnn2)c2oc(-c3ccccc3)c(C)c(=O)c2c1` (single isomer, unassigned) [Example 24A, 3,6-Dimethyl-2-phenyl-8-[1-[2-(tetrazol-1-yl)anilino]ethyl]chromen-4-one] showed a pIC50 of over 6.30. The same measure for `Cc1cc(C(C)Nc2cccc3c2C(=O)C(=O)N3)c2oc(-c3ccccc3)c(C)c(=O)c2c1` (single isomer, unassigned) [Example 27A]: over 6.00; for `Cc1cc(C(C)Nc2ccc(Cl)nc2-c2ccccc2F)c2oc(-c3cccnc3)c(C)c(=O)c2c1` (single isomer, unassigned) [Example 219C, 8-[1-[[6-Chloro-2-(2-fluorophenyl)-3-pyridyl]amino]ethyl]-3,6-dimethyl-2-(3-pyridyl)chromen-4-one]: over 6.30. On to `Cc1cc(C(C)Nc2ccc(Cl)nc2-c2ccc(=O)[nH]c2)c2oc(-c3cccnc3)c(C)c(=O)c2c1` (single isomer, unassigned) [Example 222C, 5-[6-Chloro-3-[1-[3,6-dimethyl-4-oxo-2-(3-pyridyl)chromen-8-yl]ethylamino]-2-pyridyl]-1H-pyridin-2-one], for which the pIC50 is over 6.30. Then `Cc1cc([C@@H](C)Nc2cccnc2C)c2oc(-c3cccnc3)c(C)c(=O)c2c1` [Example 9B, 3,6-Dimethyl-8-[(1R)-1-[(2-methyl-3-pyridyl)amino]ethyl]-2-(3-pyridyl)chromen-4-one], with over 6.30; and `Cc1cc([C@@H](C)Nc2ccc(Cl)nc2C)c2oc(-c3cccnc3)c(C)c(=O)c2c1` [Example 10B, 8-[(1R)-1-[(6-Chloro-2-methyl-3-pyridyl)amino]ethyl]-3,6-dimethyl-2-(3-pyridyl)chromen-4-one], with over 6.30; and `Cc1cc([C@@H](C)Nc2ccc(Cl)cc2)c2oc(-c3ccccc3)c(C)c(=O)c2c1` [Example 12B, 8-[(1R)-1-(4-Chloroanilino)ethyl]-3,6-dimethyl-2-phenyl-chromen-4-one], with over 6.00.

Consider `Cc1cc([C@@H](C)Nc2ccc(Cl)nc2)c2oc(-c3ccccc3)c(C)c(=O)c2c1` [Example 14B, 8-[(1R)-1-[(6-Chloro-3-pyridyl)amino]ethyl]-3,6-dimethyl-2-phenyl-chromen-4-one], for which the pIC50 was over 6.30. The same measure for `Cc1cc([C@@H](C)Nc2ccc(Cl)nc2)c2oc(-c3ccc(CN(C)C)cc3)c(C)c(=O)c2c1` [Example 22B, 8-[(1R)-1-[(6-Chloro-3-pyridyl)amino]ethyl]-2-[4-[(dimethylamino)methy1]phenyl]-3,6-dimethyl-chromen-4-one]: over 6.30. The compound `Cc1cc(C(C)Nc2ccccc2S(N)(=O)=O)c2oc(-c3ccccc3)c(C)c(=O)c2c1` (stereo not shown) [Example 32A, 2-[1-(3,6-Dimethyl-4-oxo-2-phenyl-chromen-8-yl)ethylamino]benzenesulfonamide] showed a pIC50 of over 6.30.

In turn, `Cc1cc([C@@H](C)Nc2cccnc2-c2ncon2)c2oc(-c3ccccc3)c(C)c(=O)c2c1` [Example 53C, 3,6-Dimethyl-8-[(1R)-1-[[2-(1,2,4-oxadiazol-3-yl)-3-pyridyl]amino]ethyl]-2-phenyl-chromen-4-one] had a pIC50 of over 6.30. For `Cc1cc([C@@H](C)Nc2ccccc2C(=O)C=S(C)(C)=O)c2oc(-c3ccccc3)c(C)c(=O)c2c1` [Example 54C, 8-[(1R)-1-[2-[2-[Dimethyl(oxo)-lambda6-sulfanylidene]acetyl]anilino]ethyl]-3,6-dimethyl-2-phenyl-chromen-4-one], the pIC50 is over 6.30. `Cc1cc([C@@H](C)Nc2cccnc2-c2n[nH]c(=O)[nH]2)c2oc(-c3ccccc3)c(C)c(=O)c2c1` [Example 63A, 3-[3-[[(1R)-1-(3,6-Dimethyl-4-oxo-2-phenyl-chromen-8-yl)ethyl]amino]-2-pyridyl]-1,4-dihydro-1,2,4-triazol-5-one] had a pIC50 of over 6.30. With `Cc1cc([C@@H](C)Nc2ccccc2-c2ncco2)c2oc(-c3ccccc3)c(C)c(=O)c2c1` [Example 65A, 3,6-Dimethyl-8-[(1R)-1-(2-oxazol-2-ylanilino)ethyl]-2-phenyl-chromen-4-one], the pIC50 was over 6.00. In turn, `Cc1cc([C@@H](C)Nc2ccccc2-c2nncn2C)c2oc(-c3ccccc3)c(C)c(=O)c2c1` [Example 66A, 3,6-Dimethyl-8-[(1R)-1-[2-(4-methyl-1,2,4-triazol-3-yl)anilino]ethyl]-2-phenyl-chromen-4-one] showed a pIC50 of over 6.30. The same measure for `Cc1cc([C@@H](C)Nc2ccccc2-c2cncn2C)c2oc(-c3ccccc3)c(C)c(=O)c2c1` [Example 68A, 3,6-Dimethyl-8-[(1R)-1-[2-(3-methylimidazol-4-yl)anilino]ethyl]-2-phenyl-chromen-4-one]: over 6.30; for `Cc1cc([C@@H](C)Nc2ccccc2-c2cncs2)c2oc(-c3cccnc3)c(C)c(=O)c2c1` [Example 72A, 3,6-Dimethyl-2-(3-pyridyl)-8-[(1R)-1-(2-thiazol-5-ylanilino)-ethyl]chromen-4-one]: over 6.30. In the case of `Cc1cc([C@@H](C)Nc2ccccc2-c2ccns2)c2oc(-c3cccnc3)c(C)c(=O)c2c1` [Example 74A, 8-[(1R)-1-(2-Isothiazol-5-ylanilino)ethyl]-3,6-dimethyl-2-(3-pyridyl)-chromen-4-one], the pIC50 was over 6.30. `Cc1cc([C@@H](C)Nc2ccc(Cl)nc2C)c2oc(-c3ccc4cn[nH]c4c3)c(C)c(=O)c2c1` [Example 78B, 8-[(1R)-1-[(6-Chloro-2-methyl-3-pyridyl)amino]ethyl]-2-(1H-indazol-6-yl)-3,6-dimethyl-chromen-4-one] gave a pIC50 of over 6.30. Then `Cc1cc([C@@H](C)Nc2ccc(Cl)nc2S(C)(=O)=O)c2oc(-c3ccccc3)c(C)c(=O)c2c1` [Example 80B, 8-[(1R)-1-[(6-Chloro-2-methylsulfonyl-3-pyridyl)amino]ethyl]-3,6-dimethyl-2-phenyl-chromen-4-one], with over 6.30. The same measure for `CNC(=O)c1ccccc1N[C@H](C)c1cc(C)cc2c(=O)c(C)c(-c3cccnc3)oc12` [Example 83A, 2-[[(1R)-1-[3,6-Dimethyl-4-oxo-2-(3-pyridyl)chromen-8-yl]ethyl]amino]-N-methyl-benzamide]: over 6.30. As for `CNC(=O)c1ccccc1N[C@H](C)c1cc(C)cc2c(=O)c(C)c(-c3ccc4nn(C)cc4c3)oc12` [Example 84A], the pIC50 was over 6.30. Then `CNC(=O)c1ccccc1N[C@H](C)c1cc(C)cc2c(=O)c(C)c(-c3cccc(F)c3)oc12` [Example 86A, 2-[[(1R)-1-[2-(3-Fluorophenyl)-3,6-dimethyl-4-oxo-chromen-8-yl]ethyl]amino]-N-methyl-benzamide], with over 6.30; and `CONS(=O)(=O)c1ccccc1N[C@H](C)c1cc(C)cc2c(=O)c(C)c(-c3ccccc3)oc12` [Example 129C, 2-[[(1R)-1-(3,6-Dimethyl-4-oxo-2-phenyl-chromen-8-yl)ethyl]amino]-N-methoxy-benzenesulfonamide], with over 6.30.

`Cc1cc([C@@H](C)Nc2ccc(Cl)nc2C(=O)NS(N)(=O)=O)c2oc(-c3ccccc3)c(C)c(=O)c2c1` [Example 130C, 6-Chloro-3-[[(1R)-1-(3,6-dimethyl-4-oxo-2-phenyl-chromen-8-yl)ethyl]amino]-N-sulfamoyl-pyridine-2-carboxamide]: the pIC50 is over 6.30. The same measure for `Cc1cc([C@@H](C)Nc2ccc(Cl)nc2S(N)(=O)=O)c2oc(-c3ccccc3)c(-c3cnoc3)c(=O)c2c1` [Example 132C]: over 6.30; for `Cc1cc([C@@H](C)Nc2ccc(Cl)nc2S(N)(=O)=O)c2oc(-c3ccc(=O)n(C(C)C)c3)c(C)c(=O)c2c1` [Example 133C]: over 6.30. Turning to `Cc1cc([C@@H](C)Nc2cccnc2N(C)C)c2oc(-c3cccnc3)c(C)c(=O)c2c1` [Example 168C, 8-[(1R)-1-[[2-(Dimethylamino)-3-pyridyl]amino]ethyl]-3,6-dimethyl-2-(3-pyridyl)chromen-4-one], the pIC50 is over 6.30.
